The results in this text go back to patent US20060029989A1, “Targeting cells having Mad2 mutation for treatment and/or prevention of disease” (Regents of the University of California, priority 1999, published 2006).

In test [1] the test system is glioblastoma cells. Kind of test: tumorigenicity of treated tumor cells in athymic mice. It counts as in vivo.
In test [2] the test system is glioblastoma cells. Briefly: growth, replication and phenotype of glioblastoma cells under continuous drug treatment. The test is classed as cell-based, human.
Test [3] deals with established yeast models (mutated MAD1/MAD2 and secondary genes). Briefly: yeast-based drug screening assay (control system showing lethality versus test system with drug added). The settings on record: among tested compounds; pharmaceutically acceptable concentrations. The test is classed as cell-based.
Experimental: In essence assay consists of control system in which one observes lethality and test system to which a drug is added and its effect is evaluated based on difference between control and test system. If drug enhances lethality or reverses it this drug is considered as a candidate drug that may be specific in the biochemical pathway controlled by primary and secondary genes.

Consider `O=C([O-])CCCc1ccccc1.[Na+]` [phenylbutyrate, 4-phenylbutyrtic acid sodium salt], for which the “tumorigenicity in athymic mice” value in the test on glioblastoma cells [1] is listed as “reduced tumorigenicity”. Also, the inhibition of growth entry in the test with glioblastoma cells [2] (4 mM, after 4-6 days of continuous treatment, glioblastoma cells) was “approximately 50%”. The tumor cell replication entry in the test on glioblastoma cells [2] (glioblastoma cells, phenylacetate metabolites compared) is on record as “inhibited tumor cell replication”. Moreover, the “cell maturation and phenotype (cytoskeletal intermediate filaments, anchorage-independence)” value in the test on glioblastoma cells [2] (tumor cells) is “promoted cell maturation and reversion to a nonmalignant phenotype”. Also, the “activity in yeast-based screening” value in test [3] is reported as “active at pharmaceutically acceptable concentrations”.
